Assay results taken from patent USRE48097E1, “Cephem compounds, their production and use” (priority 2015, dated 2020).
Values after ≈ are worked out from the molar mass of the structure shown. Read-outs that look alike come from different tables or passages of the source.

Columns and labels:
Assay type in all cases: cell-based
S. pneumoniae ATCC 6301 = assay: MIC against S. pneumoniae ATCC 6301; settings: Table 2, S. pneumoniae ATCC 6301, Pen S
Description: (§1) Without limitation, the present cephem compounds alone, or in combination with one or more β-lactamase inhibitors, may provide improved antibacterial efficacy, particularly in antibiotic-resistant bacterial strains. It is believed that the present compounds may be structurally different from known compounds and, as a result, may be more basic in nature. It is an advantage that the present compounds may extend the spectrum of effective bacterial compounds, particularly against previously-resistant bacteria (e.g. ESKAPE organisms), and/or gram negative bacteria, without significant side effects. In a preferred embodiment, the present cephem compound may comprise reference compound ceftazidime, which may be used alone, or in combination with one or more β-lactamase inhibitors, such as NXL-104. As shown, the foregoing composition was tested for minimum inhibitory concentration (MIC, μg/mL) against bacteria listed in Tables 2-3.

S. pneumoniae 2492 = assay: MIC against S. pneumoniae 2492; settings: Table 2, S. pneumoniae 2492, Pen R
Description: as §1

S. pneumoniae 2403 = assay: MIC against S. pneumoniae 2403; settings: Table 2, S. pneumoniae 2403, Pen S
Description: as §1

S. pneumoniae 2404 = assay: MIC against S. pneumoniae 2404; settings: Table 2, S. pneumoniae 2404, Pen S
Description: as §1

S. pneumoniae 2405 = assay: MIC against S. pneumoniae 2405; settings: Table 2, S. pneumoniae 2405, Pen S
Description: as §1

S. pneumoniae 2406 = assay: MIC against S. pneumoniae 2406; settings: Table 2, S. pneumoniae 2406, Pen S
Description: as §1

E. cloacae 551 = assay: MIC against E. cloacae 551; settings: Table 2, E. cloacae 551, Caz R, IMP S
Description: as §1

E. cloacae 552 = assay: MIC against E. cloacae 552; settings: Table 2, E. cloacae 552, Caz S, IMP S
Description: as §1

E. cloacae 566 = assay: MIC against E. cloacae 566; settings: Table 2, E. cloacae 566, Caz R, IMP S
Description: as §1

C. freundii 15 = assay: MIC against C. freundii 15; settings: Table 2, C. freundii 15, Caz R, IMP S
Description: as §1

C. freundii 579 = assay: MIC against C. freundii 579; settings: Table 2, C. freundii 579, Caz R, IMP S
Description: as §1

C. freundii 2487 = assay: MIC against C. freundii 2487; settings: Table 2, C. freundii 2487, Caz R, IMP S
Description: as §1

K. pneumoniae 4104 = assay: MIC against K. pneumoniae 4104; settings: K. pneumoniae 4104, KPC-3, TEM-1
Protocol: (§2) As shown, the foregoing composition was tested for minimum inhibitory concentration (MIC, μg/mL) against bacteria listed in Tables 2-3.

K. pneumoniae 4105 = assay: MIC against K. pneumoniae 4105; settings: K. pneumoniae 4105, KPC-3, TEM-1, SHV-11
Protocol: as §2

K. pneumoniae 4106 = assay: MIC against K. pneumoniae 4106; settings: K. pneumoniae 4106, KPC-3, TEM-1, SHV-12, SHV-141
Protocol: as §2

K. pneumoniae 2697 = assay: MIC against K. pneumoniae 2697; settings: Table 2, K. pneumoniae 2697, IMP-4
Description: as §1

E. coli 4080 = assay: MIC against E. coli 4080; settings: Table 2, E. coli 4080, TEM-10
Description: as §1

E. coli 4101 = assay: MIC against E. coli 4101; settings: Table 2, E. coli 4101, CTX-M-14, TEM-1
Description: as §1

P. aeruginosa 2573 = assay: MIC against P. aeruginosa 2573; settings: Table 2, P. aeruginosa 2573, OXA-10 (Class D)
Description: as §1

E. cloacae 2689 = assay: MIC against E. cloacae 2689; settings: Table 3, E. cloacae 2689, KPC-2
Protocol: as §2

E. cloacae 2710 = assay: MIC against E. cloacae 2710; settings: Table 3, E. cloacae 2710, KPC-3, VIM-1
Protocol: as §2

E. coli 2666 = assay: MIC against E. coli 2666; settings: Table 3, E. coli 2666, KPC-2
Protocol: as §2

K. pneumoniae 2711 = assay: MIC against K. pneumoniae 2711; settings: Table 3, K. pneumoniae 2711, KPC-3, VIM-1
Protocol: as §2

[1] = Streptococcus pneumoniae, ATCC6301, alone, read-out: MIC
[2] = Streptococcus pneumoniae, alone, read-out: MIC
[3] = Enterobacter cloacae, alone, read-out: MIC
[4] = Citrobacter freundii, alone, read-out: MIC
[5] = Klebsiella pneumoniae, 4104, Table 2, alone, read-out: MIC
[6] = Klebsiella pneumoniae, 4104, Table 3, alone, read-out: MIC
[7] = Klebsiella pneumoniae, 4105, Table 2, alone, read-out: MIC
[8] = Klebsiella pneumoniae, 4105, Table 3, alone, read-out: MIC
[9] = Klebsiella pneumoniae, 4106, Table 2, alone, read-out: MIC
[10] = Klebsiella pneumoniae, 4106, Table 3, alone, read-out: MIC
[11] = Klebsiella pneumoniae, alone, read-out: MIC
[12] = Escherichia coli, alone, read-out: MIC
[13] = Pseudomonas aeruginosa, alone, read-out: MIC
[14] = Table 2, in combination with NXL-104
[15] = Table 3, in combination with NXL-104

CC(C)(O/N=C(\C(=O)N[C@@H]1C(=O)N2C(C(=O)[O-])=C(C[n+]3ccc4c(ccn4Cc4ccc(C(=N)N)cc4)c3)CS[C@H]12)c1csc(N)n1)C(=O)O [Ex-1, (6R,7R)-7-{[(2Z)-2-(2-Amino-1,3-thiazol-4-yl)-2-{[(2-carboxypropan-2-yl)oxy]imino}acetyl]-amino}-3-{[1-(4-carbamimidoylbenzyl)-1H-pyrrolo[3,2-c]pyridin-5-ium-5-yl]methyl}-8-oxo-5-thia-1-azabicyclo[4.2.0]oct-2-ene-2-carboxylate]
MIC (S. pneumoniae ATCC 6301; [1]): ≤ 0.06 µg/mL
MIC (S. pneumoniae 2492; [2]): 2 µg/mL
MIC (S. pneumoniae 2403; [2]): ≤ 0.06 µg/mL
MIC (S. pneumoniae 2404; [2]): 0.25 µg/mL
MIC (S. pneumoniae 2405; [2]): ≤ 0.06 µg/mL
MIC (S. pneumoniae 2406; [2]): ≤ 0.06 µg/mL
MIC (E. cloacae 551; [3]): 32 µg/mL
MIC (E. cloacae 552; [3]): 0.12 µg/mL
MIC (E. cloacae 566; [3]): 4 µg/mL
MIC (C. freundii 15; [4]): 16 µg/mL
MIC (C. freundii 579; [4]): 4 µg/mL
MIC (C. freundii 2487; [4]): 32 µg/mL
MIC (K. pneumoniae 4104; [5]): 16 µg/mL (≈ 22.3 µM)
MIC (K. pneumoniae 4104; [6]): 32 µg/mL (≈ 44.6 µM)
MIC (K. pneumoniae 4105; [7]): 16 µg/mL (≈ 22.3 µM)
MIC (K. pneumoniae 4105; [8]): 32 µg/mL (≈ 44.6 µM)
MIC (K. pneumoniae 4106; [9]): 8 µg/mL (≈ 11.1 µM)
MIC (K. pneumoniae 4106; [10]): 32 µg/mL (≈ 44.6 µM)
MIC (K. pneumoniae 2697; [11]): 4 µg/mL
MIC (E. coli 4080; [12]): 4 µg/mL
MIC (E. coli 4101; [12]): 0.5 µg/mL
MIC (P. aeruginosa 2573; [13]): 4 µg/mL
MIC (E. cloacae 2689; [3]): 32 µg/mL (≈ 44.6 µM)
MIC (E. cloacae 2710; [3]): > 32 µg/mL
MIC (E. coli 2666; [12]): 32 µg/mL (≈ 44.6 µM)
MIC (K. pneumoniae 2711; [11]): 4 µg/mL (≈ 5.57 µM)

CC(C)(O/N=C(\C(=O)N[C@@H]1C(=O)N2C(C(=O)[O-])=C(C[n+]3ccc4c(ccn4Cc4cc(C(=N)N)cs4)c3)CS[C@H]12)c1csc(N)n1)C(=O)O [Example 5, (6R,7R)-7-{[(2Z)-2-(2-Amino-1,3-thiazol-4-yl)-2-{[(2-carboxypropan-2-yl)oxy]imino}acetyl]amino}-3-({1-[(4-carbamimidoylthiophen-2-yl)methyl]-1H-pyrrolo[3,2-c]pyridin-5-ium-5-yl}methyl)-8-oxo-5-thia-1-azabicyclo[4.2.0]oct-2-ene-2-carboxylate]
MIC (S. pneumoniae ATCC 6301; [1]): ≤ 0.06 µg/mL
MIC (S. pneumoniae ATCC 6301; in combination with NXL-104): ≤0.06 µg/mL
MIC (S. pneumoniae 2492; [2]): 2 µg/mL
MIC (S. pneumoniae 2492; in combination with NXL-104): 2.00 µg/mL
MIC (S. pneumoniae 2403; [2]): ≤ 0.06 µg/mL
MIC (S. pneumoniae 2403; in combination with NXL-104): ≤0.06 µg/mL
MIC (S. pneumoniae 2404; [2]): ≤ 0.06 µg/mL
MIC (S. pneumoniae 2404; in combination with NXL-104): ≤0.06 µg/mL
MIC (S. pneumoniae 2405; [2]): ≤ 0.06 µg/mL
MIC (S. pneumoniae 2405; in combination with NXL-104): ≤0.06 µg/mL
MIC (S. pneumoniae 2406; [2]): ≤ 0.06 µg/mL
MIC (S. pneumoniae 2406; in combination with NXL-104): ≤0.06 µg/mL
MIC (E. cloacae 551; [3]): 32 µg/mL
MIC (E. cloacae 551; in combination with NXL-104): 1.00 µg/mL
MIC (E. cloacae 552; [3]): 0.12 µg/mL
MIC (E. cloacae 552; in combination with NXL-104): ≤0.06 µg/mL
MIC (E. cloacae 566; [3]): 2 µg/mL
MIC (E. cloacae 566; in combination with NXL-104): 0.50 µg/mL
MIC (C. freundii 15; [4]): 16 µg/mL
MIC (C. freundii 15; in combination with NXL-104): 0.50 µg/mL
MIC (C. freundii 579; [4]): 4 µg/mL
MIC (C. freundii 579; in combination with NXL-104): 0.25 µg/mL
MIC (C. freundii 2487; [4]): 32 µg/mL
MIC (C. freundii 2487; in combination with NXL-104): 1.00 µg/mL
MIC (K. pneumoniae 4104; [5]): 32 µg/mL (≈ 44.2 µM)
MIC (K. pneumoniae 4104; [6]): 16 µg/mL (≈ 22.1 µM)
MIC (K. pneumoniae 4104; [14]): 2.00 µg/mL
MIC (K. pneumoniae 4104; [15]): 0.5 µg/mL
MIC (K. pneumoniae 4105; [7]): 32 µg/mL (≈ 44.2 µM)
MIC (K. pneumoniae 4105; [8]): 32 µg/mL (≈ 44.2 µM)
MIC (K. pneumoniae 4105; [14]): 1.00 µg/mL
MIC (K. pneumoniae 4105; [15]): 1 µg/mL
MIC (K. pneumoniae 4106; [9]): 16 µg/mL (≈ 22.1 µM)
MIC (K. pneumoniae 4106; [10]): 32 µg/mL (≈ 44.2 µM)
MIC (K. pneumoniae 4106; [14]): 1.00 µg/mL
MIC (K. pneumoniae 4106; [15]): 2 µg/mL
MIC (K. pneumoniae 2697; [11]): 16 µg/mL
MIC (K. pneumoniae 2697; in combination with NXL-104): 0.50 µg/mL
MIC (E. coli 4080; [12]): 16 µg/mL
MIC (E. coli 4080; in combination with NXL-104): 0.50 µg/mL
MIC (E. coli 4101; [12]): 0.5 µg/mL
MIC (E. coli 4101; in combination with NXL-104): 0.12 µg/mL
MIC (P. aeruginosa 2573; [13]): 4 µg/mL
MIC (P. aeruginosa 2573; in combination with NXL-104): 4.00 µg/mL
MIC (E. cloacae 2689; [3]): 16 µg/mL (≈ 22.1 µM)
MIC (E. cloacae 2689; in combination with NXL-104): 0.5 µg/mL
MIC (E. cloacae 2710; [3]): > 32 µg/mL
MIC (E. cloacae 2710; in combination with NXL-104): >32 µg/mL
MIC (E. coli 2666; [12]): 16 µg/mL (≈ 22.1 µM)
MIC (E. coli 2666; in combination with NXL-104): 1 µg/mL
MIC (K. pneumoniae 2711; [11]): 2 µg/mL (≈ 2.76 µM)
MIC (K. pneumoniae 2711; in combination with NXL-104): 0.25 µg/mL
